Measurements from patent publication US4777182A, “6-Amidino-2-naphthyl 4-guanidinobenzoate derivatives and pharmaceutical composition containing them” (Torii & Co., Ltd., priority 1984, dated 1988).
pIC50: −log10 of the molar value. Values joined by “and” are separate entries in the source; they are usually repeats but may differ in a detail not shown here. Identical values can stand only once. Like-named read-outs stand apart in the source and are kept apart here.

Tests used:
C1s = target: T1, C1s (Homo sapiens, UniProt P09871); experiment: Anti-C1s activity (inhibition of ATEE hydrolysis); assay type: biochemical; conditions: read-out: ID50, C1s
T1 sequence (P09871 16-437 limits assumed): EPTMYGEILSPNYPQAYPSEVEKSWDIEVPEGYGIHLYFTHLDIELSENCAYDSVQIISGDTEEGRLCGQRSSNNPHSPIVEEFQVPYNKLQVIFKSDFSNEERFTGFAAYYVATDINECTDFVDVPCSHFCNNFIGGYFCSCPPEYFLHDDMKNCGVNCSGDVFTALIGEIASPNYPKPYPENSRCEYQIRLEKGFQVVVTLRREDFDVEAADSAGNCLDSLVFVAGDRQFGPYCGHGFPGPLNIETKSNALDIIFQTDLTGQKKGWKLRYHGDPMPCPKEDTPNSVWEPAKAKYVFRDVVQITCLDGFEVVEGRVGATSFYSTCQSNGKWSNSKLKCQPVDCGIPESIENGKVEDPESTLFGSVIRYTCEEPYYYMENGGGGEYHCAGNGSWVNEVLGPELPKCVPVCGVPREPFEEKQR
T1 sequence (P09871 438-688 limits assumed): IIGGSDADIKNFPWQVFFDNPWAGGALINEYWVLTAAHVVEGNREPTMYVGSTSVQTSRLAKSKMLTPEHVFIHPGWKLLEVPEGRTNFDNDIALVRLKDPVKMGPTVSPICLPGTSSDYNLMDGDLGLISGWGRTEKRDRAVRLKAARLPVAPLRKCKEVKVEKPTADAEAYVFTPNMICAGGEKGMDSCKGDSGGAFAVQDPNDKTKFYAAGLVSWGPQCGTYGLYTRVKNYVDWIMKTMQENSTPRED
Method: (§1) The anti-C1 esterase (C1r, C1s) activity was determined according to the method of Okamura et al. [K. Okamura, M. Muramatsu and B. Fujii, Biochem. Biophys. Acta, 295, 252-257 (1973)]. (2) The inhibition of complement mediated hemolysis was determined according to the method of Baker et al. [B. R. Baker and E. H. Erickson, J. Med. Chem., 12, 408-414 (1969)]. The figures in Table 2 have the following meanings:
C1s: Molar concentration of the test compound which inhibits 50% of the ability of C1s to hydrolyse ATEE (acetyltyrosin ethyl ester) (ID50).

[1] = system: complement mediated hemolysis; experiment: Inhibition of complement mediated hemolysis; assay type: cell-based
Source text: Therefore, when a known amount of complement admixed with a C1 esterase inhibitor is used, the hemolysis must be suppressed in proportion to the inhibitory activity.

Kallikrein = experiment: Anti-kallikrein activity (inhibition of TAME hydrolysis); assay type: biochemical; conditions: read-out: ID50, Kallikrein
C1r = target: T2, C1r (Homo sapiens, UniProt P00736); experiment: Anti-C1r activity (inhibition of AAME hydrolysis); assay type: biochemical; conditions: at 1×10^-5 M; read-out: percent inhibition, C1r (figure in parentheses)
T2 sequence (P00736 18-463 limits assumed): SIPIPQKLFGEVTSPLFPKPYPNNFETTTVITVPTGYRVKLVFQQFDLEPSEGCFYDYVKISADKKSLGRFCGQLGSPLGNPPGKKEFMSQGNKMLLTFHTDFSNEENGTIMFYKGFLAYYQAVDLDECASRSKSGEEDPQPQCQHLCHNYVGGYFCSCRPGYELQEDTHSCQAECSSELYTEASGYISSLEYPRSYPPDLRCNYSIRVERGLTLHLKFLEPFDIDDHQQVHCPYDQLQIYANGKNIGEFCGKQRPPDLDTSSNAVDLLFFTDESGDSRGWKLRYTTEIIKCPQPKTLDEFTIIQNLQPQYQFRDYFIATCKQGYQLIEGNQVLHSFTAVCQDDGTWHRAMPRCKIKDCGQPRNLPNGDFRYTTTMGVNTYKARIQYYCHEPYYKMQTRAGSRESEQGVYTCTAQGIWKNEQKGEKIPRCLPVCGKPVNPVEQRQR
T2 sequence (P00736 464-705 limits assumed): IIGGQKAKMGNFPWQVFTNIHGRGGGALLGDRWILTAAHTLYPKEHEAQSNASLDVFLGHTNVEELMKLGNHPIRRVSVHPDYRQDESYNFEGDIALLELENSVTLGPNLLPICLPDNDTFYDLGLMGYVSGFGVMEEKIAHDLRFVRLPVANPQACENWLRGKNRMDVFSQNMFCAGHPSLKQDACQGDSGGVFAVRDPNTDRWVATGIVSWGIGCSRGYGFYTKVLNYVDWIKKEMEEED
Method: as §1, with “meanings: C1r: […]” for “meanings:”

Thrombin = Thrombin (Homo sapiens, UniProt P00734); experiment: biochemical; conditions: TAME hydrolysis; read-out: ID50, Thrombin
Trypsin = target: T3, Trypsin (Bos taurus, UniProt P00760); experiment: Anti-trypsin activity (inhibition of TAME hydrolysis); assay type: biochemical; conditions: read-out: ID50, Trypsin
T3 sequence (P00760 24-246): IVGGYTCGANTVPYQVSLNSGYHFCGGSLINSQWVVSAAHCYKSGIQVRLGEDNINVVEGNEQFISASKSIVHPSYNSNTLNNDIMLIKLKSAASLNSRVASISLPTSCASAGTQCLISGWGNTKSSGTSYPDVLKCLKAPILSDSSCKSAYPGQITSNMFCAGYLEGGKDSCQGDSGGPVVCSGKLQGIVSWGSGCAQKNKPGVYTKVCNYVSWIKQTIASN

Forssman shock = experiment: Forssman shock; assay type: in vivo; conditions: guinea pig, 100 mg/kg orally before i.v. hemolysin, individual animals; for time elapsed until death: 100 mg/kg
Source text: Quite different from other animals, guinea pig has on the surface of its organs a specific antigen called Forssman antigen which specifically reacts with the antibody of sheep erythrocyte. Forssman shock is based on the above principle and is a shock caused by the administration of antibody of sheep erythrocyte to a guinea pig. The Forssman shock was investigated in detail by many researches and it was definitely shown that this shock is a model case where the complement plays the principal part and that the shock is associated with a classical pathway in which the complement system is activated progressively starting from C1. Since the participation of complement in autoimmune diseases has been established, the Forssman shock can be said to be useful means for testing a drug for autoimmune diseases. A drug effective for the treatment of Forssman shock is useful as a drug of autoimmune diseases.
The experiment was performed according to the method of I. G. Offerness et al. [Biochem. Pharmacol., 27 (14), 1873-1878 (1978)]. Male Hartley guinea pigs of about 350 g in body weight were used. Each guinea pig of the control group was administered intravenously with hemolysin (minimum dose to cause the shock) (commercial hemolysin, 5,000 U as assayed by the method of Ogata) and the time elapsed until death was observed. Each guinea pig of the treated group was administered intravenously with hemolysin after the animal was administered orally with compounds (100 mg/kg) and the time elapsed until death was observed.

Plasmin = Plasmin (Homo sapiens, UniProt P00747); experiment: Anti-plasmin activity (inhibition of TAME hydrolysis); assay type: biochemical
[2] = Toxicity (median lethal dose); conditions: in vivo, mouse

Sequence of Plasmin (P00747 97-580 limits assumed, species assumed): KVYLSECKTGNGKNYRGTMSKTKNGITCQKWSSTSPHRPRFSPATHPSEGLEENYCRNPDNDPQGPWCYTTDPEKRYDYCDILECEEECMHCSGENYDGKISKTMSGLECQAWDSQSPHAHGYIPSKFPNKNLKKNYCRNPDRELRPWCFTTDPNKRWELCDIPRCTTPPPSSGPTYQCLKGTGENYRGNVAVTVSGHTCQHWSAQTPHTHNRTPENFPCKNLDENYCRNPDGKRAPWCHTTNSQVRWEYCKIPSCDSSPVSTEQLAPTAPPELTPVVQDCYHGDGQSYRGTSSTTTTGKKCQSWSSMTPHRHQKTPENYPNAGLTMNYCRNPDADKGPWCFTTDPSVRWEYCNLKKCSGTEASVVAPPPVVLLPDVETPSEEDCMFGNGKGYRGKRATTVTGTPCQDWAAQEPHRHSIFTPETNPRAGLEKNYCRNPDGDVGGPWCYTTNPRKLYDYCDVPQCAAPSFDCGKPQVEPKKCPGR
Sequence of Plasmin (P00747 581-810 limits assumed, species assumed): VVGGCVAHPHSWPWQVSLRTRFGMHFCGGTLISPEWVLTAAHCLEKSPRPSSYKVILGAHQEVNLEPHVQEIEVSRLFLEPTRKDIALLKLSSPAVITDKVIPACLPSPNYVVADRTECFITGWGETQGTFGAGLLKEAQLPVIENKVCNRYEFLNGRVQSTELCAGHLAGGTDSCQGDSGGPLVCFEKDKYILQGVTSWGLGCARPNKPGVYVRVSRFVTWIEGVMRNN

SMILES | pIC50 (C1s) | Inhibition of complement mediated hemolysis (%) ([1]; 1 × 10^-5) | Inhibition of complement mediated hemolysis (%) ([1]; 1 × 10^-6) | Inhibition of complement mediated hemolysis (%) ([1]; 1 × 10^-7) | pIC50 (Kallikrein) | inhibition at 10 µM (C1r) [%] | pIC50 (Thrombin) | pIC50 (Trypsin) | Survival (instead of time elapsed until death) (Forssman shock) | time elapsed until death (Forssman shock) | pIC50 (Plasmin; TAME hydrolysis, read-out: ID50, Plasmin) | LD50 ([2]; iv, I.V.) [mg/kg] | LD50 ([2]; po, P.O.) [mg/kg] | pIC50 (Plasmin)
CN=C(NC)Nc1ccc(C(=O)Oc2ccc3cc(C(=N)N)ccc3c2)cc1 [Compound No. 1, 6-amidino-2-naphthyl 4-(2,3-dimethyl)guanidino-benzoate] | 6.40 | 97 | 70 | 6 | 6.15 | 32 | 5.05 | 5.00 | Survival | 1291 s and 390 s and 504 s and 613 s and 404 s and 868 s | 6.10 | – | – | –
N=C(N)c1ccc2cc(OC(=O)c3ccc(NC4=NCCN4)cc3)ccc2c1 [Compound No. 2, 6-amidino-2-naphthyl 4-(2-imidazolinyl)amino-benzoate] | 6.15 | 100 | 91 | 29 | – | 35 | – | 6.00 | – | 1108 s and 1255 s and 980 s and 855 s | – | 19 | > 3000 | 5.70
